Data on 1 molecule can be found in PMC10674565 (Pharmaceuticals, 2023).

Broadly, the viability is a read-out of living cells in per cent, often relative to untreated cells. What is called IC50 is the concentration that inhibits the measured activity by half. The inhibition is the relative decrease from the control value, in per cent. As a reminder, the Cmax is the highest concentration seen after dosing.

Data set [1] is described as follows: Cytotoxicity (MTT) assay, Caco-2 cells. The following applies: human, 1–500 µM, read-out: viability compared to the control. It counts as cell-based. Here is the method:
Caco-2 and HEK93 cells were incubated in a 96-well microplate (10^4 cells per well) with different concentrations (1, 10, 50, 100, and 500 µM) of EMHPS for 24 h. At the end of incubation, 20 μL of 0.5% 3-(4,5-dimethylthiazol-2-yl)-2,5-diphenyltetrazolium bromide (MTT) was added to each well, followed by a 2 h incubation. The MTT solution was then aspirated and 200 μL of […] dimethyl sulfoxide solution (PanEko) was added. Absorption was recorded after 10 min at 530 nm with a Stat Fax 2100 plate reader (Awareness Technology, Palm City, FL, USA). The survival of cells in the presence of EMHPS was calculated according to the equation: (optical density (OD) of test wells − OD of medium)/(OD of control wells − OD of medium) × 100%, where OD is the optical density.

In data set [2] the target is ABCB1 (Homo sapiens, UniProt P08183). The data set can be described thus: Effect on ABCB1-mediated transport of fexofenadine through the Caco-2 cells monolayer. On the procedure: Transport experiments were carried out in Transwell® systems (12 mm Transwell® with 0.4 µm Pore Polycarbonate Membrane Insert, Sterile, «Corning»). The Transwell® system consists of two chambers, apical and basolateral. […] The medium was changed every 2–3 days. The apical and basolateral chambers represent the luminal and blood/mesenteric lymph sides of the gastrointestinal tract, respectively.
Chain of ABCB1 (P08183 whole entry): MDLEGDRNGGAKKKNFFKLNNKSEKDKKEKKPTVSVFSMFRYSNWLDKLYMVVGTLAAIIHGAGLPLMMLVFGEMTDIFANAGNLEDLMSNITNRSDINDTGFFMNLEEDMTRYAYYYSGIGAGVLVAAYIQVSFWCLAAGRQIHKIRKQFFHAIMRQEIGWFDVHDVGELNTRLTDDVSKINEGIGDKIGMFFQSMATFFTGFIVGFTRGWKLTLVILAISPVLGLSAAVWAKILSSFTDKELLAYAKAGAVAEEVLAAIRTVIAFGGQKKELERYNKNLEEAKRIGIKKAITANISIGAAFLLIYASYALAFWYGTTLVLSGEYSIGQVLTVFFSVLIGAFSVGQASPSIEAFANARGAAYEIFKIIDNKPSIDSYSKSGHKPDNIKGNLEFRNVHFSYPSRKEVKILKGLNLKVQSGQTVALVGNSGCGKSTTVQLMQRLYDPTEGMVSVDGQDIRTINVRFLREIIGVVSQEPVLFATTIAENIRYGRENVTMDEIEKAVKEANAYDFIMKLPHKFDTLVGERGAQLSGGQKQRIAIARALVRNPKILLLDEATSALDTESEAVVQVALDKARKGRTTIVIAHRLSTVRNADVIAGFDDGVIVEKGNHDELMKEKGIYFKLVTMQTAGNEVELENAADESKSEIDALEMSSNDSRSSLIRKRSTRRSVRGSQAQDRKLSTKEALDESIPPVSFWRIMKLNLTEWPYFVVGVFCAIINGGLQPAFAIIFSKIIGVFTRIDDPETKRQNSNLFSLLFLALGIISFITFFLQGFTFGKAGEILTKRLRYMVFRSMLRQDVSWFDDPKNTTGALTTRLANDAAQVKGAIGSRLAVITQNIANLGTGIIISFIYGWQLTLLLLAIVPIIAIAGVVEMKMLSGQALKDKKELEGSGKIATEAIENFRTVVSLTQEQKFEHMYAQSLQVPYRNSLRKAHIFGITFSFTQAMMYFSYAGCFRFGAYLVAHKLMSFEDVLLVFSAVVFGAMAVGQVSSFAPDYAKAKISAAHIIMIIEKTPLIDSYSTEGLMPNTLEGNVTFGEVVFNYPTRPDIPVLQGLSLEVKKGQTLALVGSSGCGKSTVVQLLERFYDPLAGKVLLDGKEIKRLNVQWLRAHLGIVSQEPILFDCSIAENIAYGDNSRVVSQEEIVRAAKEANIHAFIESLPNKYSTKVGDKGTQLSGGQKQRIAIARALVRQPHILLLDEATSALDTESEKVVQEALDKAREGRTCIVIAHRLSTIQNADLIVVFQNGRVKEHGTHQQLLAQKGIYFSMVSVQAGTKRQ
The transepithelial electrical resistance (TEER) across the cell monolayers was monitored using a Millicell-ERS (electrical resistance system) to assess cell monolayer integrity. For transport studies, only monolayers with a TEER > 500 Ω cm^2 were used.
To study the roles of different parts of the EMHPS molecule for its action on ABCB1, experiments with succinic acid were also carried out.
Prior to the transport experiments, the culture media was aspirated, and the monolayers were washed twice with transport medium and preincubated with EMHPS, succinic acid, or verapamil for 30 min.
The data are presented as the mean ± SD from three monolayers.
The resulting sample of the transport medium (50 μL) was diluted in 150 μL of the mobile phase, and 100 μL of the resulting solution was injected into the chromatograph. A Phenomenex Synergi 4u Polar-RP 80A (250 × 4.6) chromatographic column was used for analysis. The separation temperature was 35 °C; the flow rate was 1 mL/min. Composition of the mobile phase: acetonitrile (128 mL), deionized water (267.4 mL), acetic acid (6.33 mL), triethylamine to pH = 6.7. […] Detection was carried out at a wavelength of 220 nm.
Half maximal inhibitory concentration (IC50) values were determined through nonlinear regression based on the three-parameter logistic function.
A general note: Passage across Caco-2 layers is used to estimate intestinal permeability.

Details of data set [3]: method as in earlier work. The following applies: blood plasma; cited from earlier work.
The test system of data set [4] is hemispheric ischemic stroke. Details: method as in doi:10.1007/s11055-018-0652-y. The following applies: 151 patients with hemispheric ischemic stroke; cited from earlier work.
Data set [5] addresses T1, SLCO1B1 (Homo sapiens, UniProt Q9Y6L6).
T1 sequence (Q9Y6L6 1-691): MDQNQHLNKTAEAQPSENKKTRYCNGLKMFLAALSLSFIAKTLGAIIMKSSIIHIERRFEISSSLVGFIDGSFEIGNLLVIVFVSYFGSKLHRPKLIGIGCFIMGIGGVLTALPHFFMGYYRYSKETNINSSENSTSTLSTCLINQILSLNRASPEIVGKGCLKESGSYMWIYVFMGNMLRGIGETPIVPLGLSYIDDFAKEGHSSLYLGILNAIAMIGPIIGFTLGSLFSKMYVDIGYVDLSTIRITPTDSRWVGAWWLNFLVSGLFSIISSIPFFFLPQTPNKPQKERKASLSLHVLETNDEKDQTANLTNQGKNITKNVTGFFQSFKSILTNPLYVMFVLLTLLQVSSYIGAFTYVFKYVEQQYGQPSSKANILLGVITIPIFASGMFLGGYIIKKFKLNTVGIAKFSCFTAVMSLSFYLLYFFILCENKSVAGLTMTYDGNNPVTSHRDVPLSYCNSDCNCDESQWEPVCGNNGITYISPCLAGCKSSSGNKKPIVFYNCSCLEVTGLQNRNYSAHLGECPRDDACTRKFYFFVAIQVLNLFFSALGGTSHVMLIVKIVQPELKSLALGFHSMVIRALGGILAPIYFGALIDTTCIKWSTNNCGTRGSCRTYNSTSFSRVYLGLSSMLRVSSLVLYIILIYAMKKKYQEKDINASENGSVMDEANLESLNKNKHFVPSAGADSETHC
The experiment in a line: Inhibition of SLCO1B1-mediated uptake of atorvastatin in HEK293-SLCO1B1 cells. Details: The SLCO1B1 gene was obtained via synthesis and was cloned into the pEGFP-N1 vector; expressed in transfected cells; host or cells: HEK293. It counts as in vitro ADME. On the procedure: As a positive inhibition control, rifampicin at similar concentrations was used. Three independent experiments were performed. […] Proteins were precipitated by adding acetonitrile in a 1:1 ratio to the sample. […] The mobile phase gradient program was as follows: 0-0.6 min-35% A and 65% B, 0.6-5.0 min-5% A and 95% B, 5.0-8.0 min-35% A and 65% B. The flow rate and the column temperature were maintained at 300 μL/min and 35 °C. Aliquots (2 μL) of the extracted samples were injected.

[6] abbreviates: human, Caco-2 cell monolayer on Transwell inserts, probe fexofenadine 150 µmol/L.
Setting [7] is: human, HEK293-SLCO1B1 cells, pH 7.4, probe atorvastatin 1 µM.

On to `CCc1nc(C)ccc1O.O=C(O)CCC(=O)O` [EMHPS, 2-Ethyl-6-methyl-3-hydroxypyridine succinate], for which the viability at 24 h in data set [1] was 85 to 105%. In addition, in data set [2], the concentration for half-maximal inhibition (IC50) was 92 ± 24.3 µM. In addition, the “decrease of basal-to-apical fexofenadine transport” value in data set [2] (200 µM, vs control, Caco-2 monolayer) was 52.5%. Besides, in data set [2] (setting [6]), the inhibition at 50 µM was 50.2%, the inhibition at 100 µM worked out at 72.9% and the inhibition at 200 µM turned out to be 90.6%. Further, the Cmax in data set [3] is 390 nM. Moreover, the “neurological status compared with the placebo” value in data set [4] is given as “improved the neurological status”. Also, the IC50 in data set [5] is 12.1 ± 7.64 µM. In data set [5] (setting [7]), this molecule gave an inhibition at 100 µM of 64.7% and an inhibition at 500 µM of 90.6%.
